Laboratory results from patent publication US6506580B1, “Splice variants for human 5-HT4 serotonin receptor and their applications, in particular for screening” (Institut National de la Sante et de la Recherche Medicale …, priority 1997, dated 2003).

Experiments:
receptor 5-HT4(a) [1] = target: T1, receptor 5-HT4(a) (Homo sapiens, UniProt Q13639); test: cAMP formation in transiently transfected COS-7 cells; format: cell-based; details: COS-7, 1 μM, no agonist
T1 construct: The entire coding region of the cDNAs of 5-HT4(a), 5-HT4(b), 5-HT4(c) and 5-T4(d) was subcloned; expressed in transfected cells; host or cells: COS-7 cells, transient, pRC/CMV vector
Procedure: (§1) The entire coding region of the cDNAs of 5-HT4(a), 5-HT4(b), 5-HT4(c) and 5-T4(d) was subcloned into a mammalian expression vector pRC/CMV (Invitrogen, Carlsbad, Calif.). The transfections were carried out using polyethyleneimine (PEI) as described in Boussif et al. (1995). The cells were transfected using a mixture of DNA and of PEI in a ratio of 20 μmol of PEI/mg of DNA in 0.9% NaCl. For the radioligand binding assays, the COS-7 cells were seeded into culture flasks of 1.5×10^4 mm^2 one day before the transfection, at a density of 1×10^7 cells/flask, incubated for six hours with plasmid DNA (150 μg/flask) and collected 48 hours after transfection. For the measurement of cAMP formation, the COS-7 cells were seeded onto twelve-well plates one day before transfection, at a density of 5×10^5 cells/well, incubated for six hours with plasmid DNA (4 to 8 μg/well according to the experiments) and assayed 24 hours after the transfection. The cells transfected with the receptor 5-HT4 cDNA constructs were compared with the “blank”-transfected cells, which were exposed to the unmodified pRC/CMV plasmid.
(§2) To measure intracellular cAMP accumulation, the transiently transfected COS-7 cells were incubated, 24 hours after transfection, in Dulbecco's modified Eagle medium (DMEM) containing 5 mM theophylline, 10 mM HEPES and 10 μM pargyline for 15 minutes at 37° C., in the presence of 5% CO2. […] The reaction was stopped by aspiration of the medium and addition of 500 μl of ice-cold ethanol. After one hour at room temperature, the cells were scraped, and everything was collected and freeze-dried. The pellet was resuspended in 350 μl of PBS and centrifuged for 5 min at 300 g. The cAMP was quantified in the supernatant using a radioimmunological assay (E.R.I.A. assay kit from Pasteur Diagnostics 79830). Student's t tests were carried out using the program Quick TEst.

receptor 5-HT4(b) [2] = target: T2, receptor 5-HT4(b) (Homo sapiens, UniProt Q13639); test: as above; format: cell-based; details: COS-7, 1 μM, no agonist
T2 construct: The entire coding region of the cDNAs of 5-HT4(a), 5-HT4(b), 5-HT4(c) and 5-T4(d) was subcloned; expressed in transfected cells; host or cells: COS-7 cells, transient, pRC/CMV vector; cDNA amplified from human brain and ileum RNA
Procedure: as §1, §2

[3] = tested on: cells expressing the isoforms of the receptor 5-HT4; test: cAMP formation in transiently transfected COS-7 cells, statement for all isoforms together; format: cell-based, human; details: preincubation with 1 μM prior to 5-HT, COS-7 cells expressing the isoforms
Procedure: The entire coding region of the cDNAs of 5-HT4(a), 5-HT4(b), 5-HT4(c) and 5-T4(d) was subcloned into a mammalian expression vector pRC/CMV (Invitrogen, Carlsbad, Calif.). The transfections were carried out using polyethyleneimine (PEI) as described in Boussif et al. (1995). The cells were transfected using a mixture of DNA and of PEI in a ratio of 20 μmol of PEI/mg of DNA in 0.9% NaCl. […] The cells transfected with the receptor 5-HT4 cDNA constructs were compared with the “blank”-transfected cells, which were exposed to the unmodified pRC/CMV plasmid. […] The reaction was stopped by aspiration of the medium and addition of 500 μl of ice-cold ethanol. After one hour at room temperature, the cells were scraped, and everything was collected and freeze-dried. The pellet was resuspended in 350 μl of PBS and centrifuged for 5 min at 300 g. The cAMP was quantified in the supernatant using a radioimmunological assay (E.R.I.A. assay kit from Pasteur Diagnostics 79830). Student's t tests were carried out using the program Quick TEst.

receptor 5-HT4(d) = receptor 5-HT4(d) (Homo sapiens, UniProt Q13639); test: cAMP formation in transiently transfected COS-7 cells; format: cell-based; design: The entire coding region of the cDNAs of 5-HT4(a), 5-HT4(b), 5-HT4(c) and 5-T4(d) was subcloned; expressed in transfected cells; host or cells: COS-7 cells, transient, pRC/CMV vector; cDNA amplified from human brain and ileum RNA; details: COS-7, 1 μM, no agonist
Procedure: The entire coding region of the cDNAs of 5-HT4(a), 5-HT4(b), 5-HT4(c) and 5-T4(d) was subcloned into a mammalian expression vector pRC/CMV (Invitrogen, Carlsbad, Calif.). The transfections were carried out using polyethyleneimine (PEI) as described in Boussif et al. (1995). The cells were transfected using a mixture of DNA and of PEI in a ratio of 20 μmol of PEI/mg of DNA in 0.9% NaCl. For the radioligand binding assays, the COS-7 cells were seeded into culture flasks of 1.5×10^4 mm^2 one day before the transfection, at a density of 1×10^7 cells/flask, incubated for six hours with plasmid DNA (150 μg/flask) and collected 48 hours after transfection. For the measurement of cAMP formation, the COS-7 cells were seeded onto twelve-well plates one day before transfection, at a density of 5×10^5 cells/well, incubated for six hours with plasmid DNA (4 to 8 μg/well according to the experiments) and assayed 24 hours after the transfection. […]
To measure intracellular cAMP accumulation, the transiently transfected COS-7 cells were incubated, 24 hours after transfection, in Dulbecco's modified Eagle medium (DMEM) containing 5 mM theophylline, 10 mM HEPES and 10 μM pargyline for 15 minutes at 37° C., in the presence of 5% CO2. […] The cAMP was quantified in the supernatant using a radioimmunological assay (E.R.I.A. assay kit from Pasteur Diagnostics 79830). […]

receptor 5-HT4(a) [4] = target: T1, receptor 5-HT4(a); test: [3H]GR113808 radioligand binding, membranes of transiently transfected COS-7 cells; details: read-out: Ki, competition for [3H]GR113808 binding
Procedure: as §1
(§3) Each flask of cells intended for the radioligand binding assays was washed twice with a phosphate buffer (PBS). The cells were then scraped, collected and centrifuged at 300 g for five minutes. The pellet was resuspended in 2.5 ml of ice-cold HEPES buffer (50 mM, pH 7.4) and homogenized with an Ultraturax tissue grinder. The lysate was then centrifuged at 40,000 g for 20 minutes at 4° C. The resulting pellet was resuspended in 15 volumes of HEPES buffer (50 mM, pH 7.4). The membrane preparations were maintained in ice and used within two hours for radioligand binding assays. The protein concentrations were determined by the method of Lowry et al., 1951, using bovine serum albumin as standard.
(§4) The saturation studies were performed using [^3H] GR113808 at 9 different concentrations ranging from 0.01 to 3.5 nM. The tubes were incubated at 25° C. for 30 minutes. The reaction-was stopped by rapid filtration, under vacuum, through Whatman GF/B filter paper using the Brandel 48R cell harvester. The filters were presoaked in a solution of PEI (0.1%) to reduce the binding to the filters. The filters were then washed with an ice-cold buffer (50 mM Tris-HCl, pH 7.4) and placed in 4 ml of “ready safe” scintillation cocktail (Beckman, Fullerton, Calif.) overnight. The radioactivity was measured using a Beckman LS 6500 C liquid scintillation counter. The binding data were analysed by computer-assisted nonlinear regression analysis (Graph Pad Prism Program, Graph Pad Software, Inc., San Diego, Calif.).
(§5) The experiments correspond to the competition of various compounds for [^3H]GR113808 binding to membranes of transiently transfected COS-7 cells. […] The estimations of affinity are given as Ki values in nM, and are determined from IC50 values obtained by computer-assisted nonlinear curve analysis (GraphPad, Prism Software). The Ki values are representative of at least two determinations.

receptor 5-HT4(b) [5] = target: T2, receptor 5-HT4(b); test: as above; details: read-out: Ki, competition for [3H]GR113808 binding
Procedure: as §1, §3, §4, §5

[6] = tested on: “blank”-transfected COS-7 cells; test: cAMP formation in control COS-7 cells; format: cell-based; details: 1 μM
Procedure: as §1, §2

T1 sequence (Q13639 1-387 isoform Q13639-2): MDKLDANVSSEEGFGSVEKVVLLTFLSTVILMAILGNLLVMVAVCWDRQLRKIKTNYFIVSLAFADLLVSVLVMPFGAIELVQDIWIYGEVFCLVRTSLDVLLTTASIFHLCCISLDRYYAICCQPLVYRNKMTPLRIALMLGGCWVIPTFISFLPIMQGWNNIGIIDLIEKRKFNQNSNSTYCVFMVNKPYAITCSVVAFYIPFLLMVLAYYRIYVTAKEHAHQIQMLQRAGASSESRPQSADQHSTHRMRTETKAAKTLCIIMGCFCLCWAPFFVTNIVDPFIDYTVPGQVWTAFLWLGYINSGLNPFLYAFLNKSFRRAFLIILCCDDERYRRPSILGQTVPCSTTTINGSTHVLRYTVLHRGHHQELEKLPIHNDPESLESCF
T2 sequence (Q13639 whole entry): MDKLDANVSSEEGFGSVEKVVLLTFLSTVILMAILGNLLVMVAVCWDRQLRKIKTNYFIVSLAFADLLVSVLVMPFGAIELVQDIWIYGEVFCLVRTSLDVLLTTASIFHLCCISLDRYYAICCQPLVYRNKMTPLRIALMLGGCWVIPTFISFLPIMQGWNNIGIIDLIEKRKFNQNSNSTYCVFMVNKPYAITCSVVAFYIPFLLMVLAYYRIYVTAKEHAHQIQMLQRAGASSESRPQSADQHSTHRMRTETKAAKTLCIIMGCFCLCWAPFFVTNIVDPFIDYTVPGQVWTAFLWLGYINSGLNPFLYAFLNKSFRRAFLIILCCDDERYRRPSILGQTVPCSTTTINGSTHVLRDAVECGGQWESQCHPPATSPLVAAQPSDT
Sequence of receptor 5-HT4(d) (Q13639 1-360 isoform Q13639-3): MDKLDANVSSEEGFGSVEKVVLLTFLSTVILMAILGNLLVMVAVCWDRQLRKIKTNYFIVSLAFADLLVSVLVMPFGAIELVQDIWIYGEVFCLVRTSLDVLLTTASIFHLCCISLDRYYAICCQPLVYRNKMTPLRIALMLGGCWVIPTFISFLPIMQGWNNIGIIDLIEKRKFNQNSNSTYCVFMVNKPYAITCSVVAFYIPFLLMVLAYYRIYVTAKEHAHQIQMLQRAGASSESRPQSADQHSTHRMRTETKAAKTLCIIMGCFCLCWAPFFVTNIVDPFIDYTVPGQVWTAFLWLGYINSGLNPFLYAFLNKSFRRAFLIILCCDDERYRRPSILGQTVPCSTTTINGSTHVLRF

SMILES: COc1cc(N)c(Cl)cc1C(=O)OCCN1C[C@H](C)C[C@H](C)C1 [ML10375, 2-(cis-3,5-dimethyl-piperidino)ethyl 4-amino-5-chloro-2-methoxybenzoate]
- effect on the basal cAMP levels (receptor 5-HT4(a) [1]): no significant effect
- effect on the basal cAMP levels (receptor 5-HT4(b) [2]): no significant effect
- antagonism of the capacity of 5-HT (1 μM) to increase basal cAMP levels [3]: antagonizes
- reduction of the basal cAMP levels (receptor 5-HT4(d)): 24%
- Ki (receptor 5-HT4(a) [4]): 0.56 ± 0.11 nM
- Ki (receptor 5-HT4(b) [5]): 1.62 ± 0.82 nM
- effect on basal adenylate cyclase activity / basal cAMP levels [6]: no significant effect
